Measured values: the supplement of paper PMC10883282
Counter-ions that a name gives are not always drawn. ± gives the standard deviation of the averaged measurements.

Test system: SW982
Assay: relative viability vs DMSO control (72 h) (fraction); higher = more viable cells
Method in brief: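 Serially diluted compound, 2.5 µl from source plates spanning 10 mM to 0.0002 mM, was added 24 h after sarcoma cell lines were seeded in 384-well plates at densities targeting 80–90% confluence. Plates then sat 72 h at 37 °C, 5% CO2, with 0.1% DMSO vehicle and a 5 µM positive control. Relative viability came from ATPLite as percent growth, averaged over up to triplicate wells, and was rescaled with 1 as full and 0 as none.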

SMILES	relative viability (0.00017 µM)	relative viability (0.00051 µM)	relative viability (0.00152 µM)	relative viability (0.00457 µM)	relative viability (0.01372 µM)	relative viability (0.04115 µM)	relative viability (0.1235 µM)	relative viability (0.3704 µM)	relative viability (1.111 µM)	relative viability (3.333 µM)	relative viability (10 µM)
O=C(Nc1cnn2ccc(N3CCC[C@@H]3c3cc(F)ccc3F)nc12)N1CC[C@H](O)C1 [Larotrectinib]	1.02 ± 0.015	1 ± 0.022	1.01 ± 0.036	1.07 ± 0.026	1.07 ± 0.031	1.058 ± 0.0089	1.05 ± 0.025	1.02 ± 0.019	1.05 ± 0.027	1.05 ± 0.032	1.01 ± 0.02
C[C@@H]1COCCN1c1cc(-c2ccnn2C)c2ccnc(-c3ccn[nH]3)c2n1	1.04 ± 0.031	1.05 ± 0.052	1.05 ± 0.056	1.04 ± 0.015	0.989 ± 0.028	0.685 ± 0.039	0.499 ± 0.009	0.322 ± 0.011	0.1893 ± 0.0012	0.149 ± 0.002	0.142 ± 0.0075
CC(C)N1CCN(Cc2cnc(-c3cc(-c4cccc5[nH]ccc45)cc4[nH]ncc34)o2)CC1 [Nemiralisib]	0.946 ± 0.032	0.961 ± 0.044	0.918 ± 0.042	0.923 ± 0.038	0.954 ± 0.012	0.93 ± 0.061	0.916 ± 0.033	0.89 ± 0.056	0.805 ± 0.039	0.654 ± 0.032	0.275 ± 0.014
COc1cccc2c1C(=O)c1c(O)c3c(c(O)c1C2=O)C[C@@](O)(C(=O)CO)C[C@@H]3O[C@H]1C[C@H](N)[C@H](O)[C@H](C)O1 [Doxorubicin Hydrochloride]	1.05 ± 0.0095	1.05 ± 0.057	1.07 ± 0.025	1.04 ± 0.035	0.796 ± 0.022	0.457 ± 0.025	0.326 ± 0.019	0.1607 ± 0.0012	0.127 ± 0.0062	0.165 ± 0.005	0.139 ± 0.0092
Nc1cc(C(F)(F)F)c(-c2cc(N3CCOCC3)nc(N3CCOCC3)n2)cn1 [Buparlisib]	1 ± 0.025	1 ± 0.033	1.04 ± 0.031	1.03 ± 0.049	1.04 ± 0.011	1.02 ± 0.041	0.983 ± 0.035	0.86 ± 0.02	0.405 ± 0.033	0.146 ± 0.0066	0.0979 ± 0.0037
Cc1cc(Nc2ncnc3ccc(NC4=NC(C)(C)CO4)cc23)ccc1Oc1ccn2ncnc2c1 [Tucatinib]	1.05 ± 0.062	1.11 ± 0.02	1.1 ± 0.022	1.09 ± 0.031	1.078 ± 0.0072	1.088 ± 0.0077	1.08 ± 0.035	1.059 ± 0.01	1.08 ± 0.046	1.1 ± 0.044	1.06 ± 0.026
Cc1nc(-c2cn3c(n2)-c2ccc(-c4cnn(C(C)(C)C(N)=O)c4)cc2OCC3)n(C(C)C)n1 [Taselisib]	1.03 ± 0.045	1.04 ± 0.023	1.02 ± 0.043	1.02 ± 0.02	1.02 ± 0.034	0.968 ± 0.02	0.898 ± 0.026	0.7957 ± 0.0075	0.633 ± 0.035	0.506 ± 0.016	0.339 ± 0.02
CN1CCC(COc2cnc(-c3cccc(Cn4nc(-c5cccc(C#N)c5)ccc4=O)c3)nc2)CC1 [Tepotinib]	1.02 ± 0.025	1.07 ± 0.027	1.051 ± 0.0014	1.07 ± 0.029	1.04 ± 0.019	1.06 ± 0.019	1.062 ± 0.0073	1.03 ± 0.035	1.04 ± 0.059	1.02 ± 0.027	0.777 ± 0.025
CNC(=O)c1cc(Oc2ccc(NC(=O)Nc3ccc(Cl)c(C(F)(F)F)c3)c(F)c2)ccn1 [Regorafenib]	1.03 ± 0.017	1.09 ± 0.057	1.08 ± 0.043	1.1 ± 0.052	1.06 ± 0.032	1.08 ± 0.057	1.09 ± 0.044	1.09 ± 0.056	0.997 ± 0.037	0.8827 ± 0.0051	0.795 ± 0.0056
CCCS(=O)(=O)Nc1ccc(F)c(C(=O)c2c[nH]c3ncc(-c4ccc(Cl)cc4)cc23)c1F [Vemurafenib]	1.04 ± 0.063	1.08 ± 0.048	1.05 ± 0.027	1.03 ± 0.029	1.06 ± 0.053	1.02 ± 0.045	0.9867 ± 0.0019	0.988 ± 0.039	1.01 ± 0.029	0.794 ± 0.035	0.532 ± 0.02
COc1c(OCCCN2CCOCC2)ccc2c1N=C(NC(=O)c1cnc(N)nc1)N1CCN=C21 [Copanlisib]	1.04 ± 0.024	1.02 ± 0.022	1.04 ± 0.043	0.881 ± 0.016	0.797 ± 0.032	0.704 ± 0.029	0.529 ± 0.01	0.391 ± 0.019	0.213 ± 0.011	0.177 ± 0.0066	0.177 ± 0.0061
CC(=O)Nc1cccc(-n2c(=O)n(C3CC3)c(=O)c3c(Nc4ccc(I)cc4F)n(C)c(=O)c(C)c32)c1 [Trametinib]	0.993 ± 0.045	0.988 ± 0.044	0.981 ± 0.028	0.938 ± 0.051	0.893 ± 0.095	0.866 ± 0.07	0.847 ± 0.084	0.848 ± 0.038	0.858 ± 0.049	0.838 ± 0.049	0.799 ± 0.027
COCc1c(-c2cc3cc(C)cc(OC)c3s2)c2c(N)ncnn2c1CN1CCNC(=O)C1 [Rogaratinib]	1.05 ± 0.019	1.06 ± 0.028	1.07 ± 0.058	1.06 ± 0.012	1.06 ± 0.027	1.07 ± 0.028	1.06 ± 0.065	1.06 ± 0.044	0.996 ± 0.024	0.728 ± 0.023	0.362 ± 0.0075
COc1cc2/c(=N/c3ccc(Br)cc3F)nc[nH]c2cc1OCC1CCN(C)CC1 [Vandetanib]	0.997 ± 0.044	1 ± 0.035	0.977 ± 0.021	1.01 ± 0.033	1.01 ± 0.078	1.03 ± 0.041	0.983 ± 0.075	0.873 ± 0.077	0.699 ± 0.084	0.291 ± 0.032	0.0207 ± 0.0067
CNC(=O)c1ccc(-c2cnc3ncc(Cc4ccc5ncccc5c4)n3n2)cc1F [Capmatinib]	1.04 ± 0.023	1.07 ± 0.045	1.07 ± 0.076	1.042 ± 0.0035	1.06 ± 0.067	1.03 ± 0.025	1.04 ± 0.028	1.06 ± 0.045	1.07 ± 0.06	1.06 ± 0.057	1.02 ± 0.024
CCN1CCN(Cc2ccc(Nc3ncc(F)c(-c4cc(F)c5nc(C)n(C(C)C)c5c4)n3)nc2)CC1 [Abemaciclib]	1.05 ± 0.036	1.06 ± 0.046	1.04 ± 0.043	1.06 ± 0.041	1.07 ± 0.035	0.987 ± 0.031	0.787 ± 0.046	0.593 ± 0.02	0.469 ± 0.013	0.302 ± 0.12	0.0803 ± 0.12
C=CC(=O)N1CCC[C@@H](n2nc(-c3ccc(Oc4ccccc4)cc3)c3c(N)ncnc32)C1 [Ibrutinib]	1.02 ± 0.016	1.06 ± 0.039	1.07 ± 0.011	1.05 ± 0.035	1.03 ± 0.033	1.05 ± 0.02	1.05 ± 0.035	1.06 ± 0.051	1.08 ± 0.036	1.04 ± 0.027	0.845 ± 0.044
Cn1cnc2c(F)c(Nc3ccc(Br)cc3F)c(C(=O)NOCCO)cc21 [Binimetinib]	0.974 ± 0.046	1.04 ± 0.019	1.07 ± 0.018	0.981 ± 0.056	0.99 ± 0.05	0.92 ± 0.058	0.833 ± 0.043	0.831 ± 0.051	0.809 ± 0.038	0.786 ± 0.035	0.765 ± 0.042
